Data as given in paper PMC6267684, “Pharmacokinetic evaluation of the PNC disassembler metarrestin in wild-type and Pdx1-Cre;LSL-Kras^G12D/+;Tp53^R172H/+ (KPC) mice, a genetically engineered model of pancreatic cancer” (Cancer Chemotherapy and Pharmacology, 2018).

Experiments:
[1] = system: PNC in PC3M cells; test: PNC disassembly assay in PC3M cells; type: cell-based; conditions: PC3M (PTB-GFP) cells
Procedure: The PNC disassembly assay has been previously described. […] Cells were fixed with […] for 10 min at room temperature. […] Confocal images were obtained using Opera Phoenix (PerkinElmer, Waltham, MA) and a 20× objective lens.
To examine whether measured intratumor metarrestin concentrations measured in PK studies track with intracellular metarrestin concentration, we first decided to synthesize a fluorophore conjugated analog of metarrestin. Structure activity relationship studies around the structure of metarrestin were conducted in a high throughput assay that measured in dose dependence the ability of compounds to reducing PNC prevalence in PC3M cells. […] This analog was chemically conjugated to the fluorophore boron-dipyrromethene (BODIPY®) to track the disassembly of the PNC in PC3M cancer cells by confocal microscopy (Suppl. Figure 2). […] Next, to examine cellular metarrestin levels in relation to extracellular concentrations, we exposed KPC and PC3M cells at 1 and 10 µM concentrations of metarrestin and harvested cells at different timepoints.

[2] = system: PNC in murine KPC tumors; test: PNC prevalence in KPC tumors (immunofluorescence with α-PTB1 antibodies); type: in vivo, KPC mice; conditions: after 14-day treatment with 25 mg/kg by oral gavage; untreated 38.2%
Procedure: Blood samples were collected in K2EDTA tubes and plasma was harvested after centrifugation at 3000 rpm for 10 min. Tissue samples were weighed and flash-frozen for PK and PD mRNA expression analyses, embedded into OCT blocks for PNC determination and processed into FFPE blocks for histopathology assessment. All PK samples were stored at − 80 °C until analysis.
To establish a dose–response relationship between intratumor exposure levels of metarrestin and mechanism of action of the drug in vivo, we first confirmed the ability of metarrestin to suppress PNC structures in murine pancreatic KPC tumors. The prevalence of PNC bodies (expressed as the fraction of cells containing one or more PNCs) was 38.2% in untreated murine KPC tumors (Fig. 4a) which was similar to the PNC prevalence in the previously examined NOD/IL2 gamma (null) PANC1 metastasis model (35.1%) and higher than in cancer cell lines derived from primary pancreatic tumors (average ~ 23.5%). […]
Fig. 4 Intratumor metarrestin exposure correlates with PNC prevalence and mRNA expression levels of transcriptional regulators FOXA1 and FOXO6. a Metarrestin disassembles the peri-nucleolar compartment (PNC) in KPC tumors. […] Relative expression levels of FOXA1 and FOXO6 determined by qRT-PCR and normalized to reference genes. […]

Question: Which IC50 ([1]; Homo sapiens, PC-3M) does the source give for `N=c1c2c(-c3ccccc3)c(-c3ccccc3)n(Cc3ccccc3)c2ncn1[C@H]1CC[C@H](O)CC1` [metarrestin, Trans-4-(7-benzyl-4-imino-5,6-diphenyl-4,7-dihydro-3H-pyrrolo[2,3-d]pyrimidin-3-yl) cyclohexanol] here?
Answer: Its IC50 is 400 nM.

Question: What about the IC50 [1] of the same compound?
Answer: Its IC50 is 397 nM.

Question: And the “PNC prevalence in KPC tumors” value [2]?
Answer: The value was 9.8%.
